System: Male Wistar rats
Test: Penile erection test (penile erection score) in conscious rats
Format: in vivo
Details: after local injection (animal studies)
Procedure: Male Wistar rats aged from 8 to 10 weeks old (250 - 320 g) were used in these studies. Animals were housed in groups of five, provided with food and water ad libitum and kept in controlled laboratory conditions with the temperature maintained at 22 ± 2 °C and light in 12 h cycles (on at 06:00 h and off at 18:00 h). Experiments were carried out in a soundproof and air-regulated experimental room. The number of rats ranged from 5 to 34 per group in each individual experiment.
Drugs used for treatments were: Compound 1, Compound 2, Compound 3 and Alprostadil.
Male Wistar rats received local injections (intrapenis injections) or topical administrations of test substances and penile erection was quantified (penile erection score) from 15 to 30 min after local drug injection and from 5 to 60 min after topical drug administration. The magnitude of penile erection is determined by penile erection score. The Baseline was determined based on vehicle injection. […]
For evaluating the penile erection after both types of administration, a qualitative score method was used, where 0 = no effect, 1 = slight effect, 2 = some effect without exposure of the penis, and 3 = clear effect with exposure of the penis. The reading times for the local injection were 15 and 30 minutes, and for the topical application were 5, 15, 30, and 60 minutes.
Data are expressed as Mean±SEM. […]

SMILES | penile erection
Cc1nn(C)c(C)c1-c1ccc(O)c(CCN(C)C)c1 [Compound 1, 2-(2-(Dimethylamino)ethyl)-4-(1,3,5-trimethyl-1H-pyrazol-4-yl)phenol] | cause penile erection in the absence of sexual stimulation
Cc1nn(C)c(C)c1-c1cccc(CCN(C)C)c1 [Compound 2, Dimethyl-{2-[3-(1,3,5-trimethyl-1H-pyrazol-4-yl)-phenyl]-ethyl}-amine] | cause penile erection in the absence of sexual stimulation

From patent EP2676954A1, “Heterocyclyl-substituted-phenyl derivatives as vasodilators” (Laboratorios del Dr. Esteve S.A., priority 2012, dated 2013)
